# Measured values reported in ChEMBL document CHEMBL3763078, “Cytotoxicity and apoptotic activity of novel organobismuth(V) and organoantimony(V) complexes in different cancer cell lines” (Eur J Med Chem, 2016).
# pIC50: −log10 of the molar value.
# Assays:
# L929 = assay: Cytotoxicity against mouse L929 cells assessed as cell viability after 72 hrs by MTT assay; type: cell-based
# B16-F10 [1] = assay: Selectivity index, ratio of IC50 for mouse Melan-a cells to IC50 for mouse B16F10 cells; type: functional
# K562 [2] = assay: Selectivity index, ratio of IC50 for mouse Melan-a cells to IC50 for human K562 cells; type: functional
# [3] = Cytotoxicity against mouse B16F10 cells assessed as cell viability after 72 hrs by MTT assay; type: functional, cell-based, B16-F10
# K562 [4] = assay: Selectivity index, ratio of IC50 for mouse L929 cells to IC50 for human K562 cells; type: functional
# B16-F10 [5] = assay: Selectivity index, ratio of IC50 for mouse L929 cells to IC50 for mouse B16F10 cells; type: functional
# K562 [6] = assay: Cytotoxicity against human K562 cells assessed as cell viability after 72 hrs by tryphan blue assay; type: functional, cell-based
# [7] = Cytotoxicity against mouse Melan-a cells assessed as cell viability after 72 hrs by MTT assay; type: cell-based
# B16-F10 [8] = assay: Induction of apoptosis in mouse B16F10 cells assessed as viable cells at 0.1 uM after 48 hrs by annexin V-FITC/propidium iodide staining-based flow cytometric analysis (reference value: 98.4%); type: functional; conditions: B16-F10, 48 h, read-out: Activity
# B16-F10 [9] = assay: Induction of apoptosis in mouse B16F10 cells assessed as early apoptotic cells at 0.1 uM after 48 hrs by annexin V-FITC/propidium iodide staining-based flow cytometric analysis (reference value: 0.087%); type: functional
# B16-F10 [10] = assay: Induction of apoptosis in mouse B16F10 cells at 0.1 uM after 48 hrs by annexin V-FITC/propidium iodide staining-based flow cytometric analysis relative to control; type: functional
# B16-F10 [11] = assay: Induction of apoptosis in mouse B16F10 cells assessed as dead cells at 0.1 uM after 48 hrs by annexin V-FITC/propidium iodide staining-based flow cytometric analysis (reference value: 1.11%); type: functional
# B16-F10 [12] = assay: Induction of apoptosis in mouse B16F10 cells assessed as late apoptotic cells at 0.1 uM after 48 hrs by annexin V-FITC/propidium iodide staining-based flow cytometric analysis (reference value: 0.450%); type: functional
# HL-60 [13] = assay: Induction of apoptosis in human HL60 cells assessed as increase in sub-diploid DNA content at 0.44 uM after 6 hrs by propidium iodide staining-based flow cytometric analysis relative to control; type: functional, cell-based
# HL-60 [14] = assay: Induction of apoptosis in human HL60 cells assessed as increase in sub-diploid DNA content at 0.44 uM after 12 hrs by propidium iodide staining-based flow cytometric analysis relative to control; type: functional, cell-based
# B16-F10 [15] = assay: Induction of apoptosis in mouse B16F10 cells at 1 to 100 uM after 48 hrs by annexin V-FITC/propidium iodide staining-based flow cytometric analysis relative to staurosporine; type: functional, cell-based
# B16-F10 [16] = assay: Induction of apoptosis in mouse B16F10 cells assessed as early apoptotic cells at 10 uM after 48 hrs by annexin V-FITC/propidium iodide staining-based flow cytometric analysis (reference value: 0.087%); type: functional, cell-based
# B16-F10 [17] = assay: Induction of apoptosis in mouse B16F10 cells assessed as early apoptotic cells at 1 uM after 48 hrs by annexin V-FITC/propidium iodide staining-based flow cytometric analysis (reference value: 0.087%); type: functional, cell-based
# B16-F10 [18] = assay: Induction of apoptosis in mouse B16F10 cells assessed as late apoptotic cells at 100 uM after 48 hrs by annexin V-FITC/propidium iodide staining-based flow cytometric analysis (reference value: 0.450%); type: functional, cell-based
# B16-F10 [19] = assay: Induction of apoptosis in mouse B16F10 cells at 10 uM after 48 hrs by annexin V-FITC/propidium iodide staining-based flow cytometric analysis relative to control; type: functional, cell-based
# B16-F10 [20] = assay: Induction of apoptosis in mouse B16F10 cells assessed as increase in sub-diploid DNA content at 10 uM after 24 hrs by propidium iodide staining-based flow cytometric analysis relative to staurosporin; type: functional, cell-based
# B16-F10 [21] = assay: Induction of apoptosis in mouse B16F10 cells assessed as increase in sub-diploid DNA content at 10 uM after 48 hrs by propidium iodide staining-based flow cytometric analysis relative to control; type: functional, cell-based
# B16-F10 [22] = assay: Induction of apoptosis in mouse B16F10 cells at 1 uM after 48 hrs by annexin V-FITC/propidium iodide staining-based flow cytometric analysis relative to control; type: functional, cell-based
# B16-F10 [23] = assay: Induction of apoptosis in mouse B16F10 cells assessed as increase in sub-diploid DNA content at 100 uM after 24 hrs by propidium iodide staining-based flow cytometric analysis relative to staurosporin; type: functional, cell-based
# B16-F10 [24] = assay: Induction of apoptosis in mouse B16F10 cells assessed as viable cells at 100 uM after 48 hrs by annexin V-FITC/propidium iodide staining-based flow cytometric analysis (reference value: 98.4%); type: functional, cell-based
# B16-F10 [25] = assay: Induction of apoptosis in mouse B16F10 cells assessed as viable cells at 1 uM after 48 hrs by annexin V-FITC/propidium iodide staining-based flow cytometric analysis (reference value: 98.4%); type: functional, cell-based
# B16-F10 [26] = assay: Induction of apoptosis in mouse B16F10 cells assessed as late apoptotic cells at 1 uM after 48 hrs by annexin V-FITC/propidium iodide staining-based flow cytometric analysis (reference value: 0.450%); type: functional, cell-based
# B16-F10 [27] = assay: Induction of apoptosis in mouse B16F10 cells assessed as dead cells at 1 uM after 48 hrs by annexin V-FITC/propidium iodide staining-based flow cytometric analysis (reference value: 1.11%); type: functional, cell-based
# B16-F10 [28] = assay: Induction of apoptosis in mouse B16F10 cells assessed as late apoptotic cells at 10 uM after 48 hrs by annexin V-FITC/propidium iodide staining-based flow cytometric analysis (reference value: 0.450%); type: functional, cell-based
# B16-F10 [29] = assay: Induction of apoptosis in mouse B16F10 cells assessed as increase in sub-diploid DNA content at 100 uM after 24 hrs by propidium iodide staining-based flow cytometric analysis relative to control; type: functional, cell-based
# B16-F10 [30] = assay: Induction of apoptosis in mouse B16F10 cells assessed as dead cells at 10 uM after 48 hrs by annexin V-FITC/propidium iodide staining-based flow cytometric analysis (reference value: 1.11%); type: functional, cell-based
# B16-F10 [31] = assay: Induction of apoptosis in mouse B16F10 cells assessed as early apoptotic cells at 100 uM after 48 hrs by annexin V-FITC/propidium iodide staining-based flow cytometric analysis (reference value: 0.087%); type: functional, cell-based
# B16-F10 [32] = assay: Induction of apoptosis in mouse B16F10 cells assessed as increase in sub-diploid DNA content at 100 uM after 48 hrs by propidium iodide staining-based flow cytometric analysis relative to control; type: functional, cell-based
# B16-F10 [33] = assay: Induction of apoptosis in mouse B16F10 cells at 100 uM after 48 hrs by annexin V-FITC/propidium iodide staining-based flow cytometric analysis relative to control; type: functional, cell-based
# B16-F10 [34] = assay: Induction of apoptosis in mouse B16F10 cells assessed as dead cells at 100 uM after 48 hrs by annexin V-FITC/propidium iodide staining-based flow cytometric analysis (reference value: 1.11%); type: functional, cell-based
# B16-F10 [35] = assay: Induction of apoptosis in mouse B16F10 cells assessed as increase in sub-diploid DNA content at 10 uM after 24 hrs by propidium iodide staining-based flow cytometric analysis relative to control; type: functional, cell-based
# B16-F10 [36] = assay: Induction of apoptosis in mouse B16F10 cells assessed as viable cells at 10 uM after 48 hrs by annexin V-FITC/propidium iodide staining-based flow cytometric analysis (reference value: 98.4%); type: functional, cell-based
# [37] = Induction of apoptosis in mouse thymocytes at 30 uM after 3 hrs by annexin V-FITC/ethidium bromide staining-based flow cytometric analysis relative to control; type: cell-based; conditions: thymocyte
compound,measurement,setting,value
CC(=O)c1ccc(C(=O)O)cc1,pIC50,"L929; Mus musculus, L929, 72 h",3.48
same,Ratio IC50,B16-F10 [1],<1
same,Ratio IC50,K562 [2],<1
same,pIC50,"[3]; Mus musculus, B16-F10, 72 h",3.75
same,Ratio IC50,K562 [4],<1
same,Ratio IC50,B16-F10 [5],1.8
same,pIC50,"K562 [6]; Homo sapiens, K562, 72 h",> 3.00
CC(=O)c1ccccc1C(=O)O,pIC50,"L929; Mus musculus, L929, 72 h",3.32
same,Ratio IC50,B16-F10 [1],<1
same,Ratio IC50,K562 [2],1.5
same,pIC50,"[3]; Mus musculus, B16-F10, 72 h",3.07
same,Ratio IC50,K562 [4],<1
same,pIC50,"[7]; Mus musculus, Melan-a, 72 h",3.11
same,Ratio IC50,B16-F10 [5],<1
same,pIC50,"K562 [6]; Homo sapiens, K562, 72 h",3.30
CC(=O)c1ccc(O)c(C(=O)O)c1,pIC50,"L929; Mus musculus, L929, 72 h",3.51
same,Ratio IC50,B16-F10 [1],<1
same,Ratio IC50,K562 [2],<1
same,pIC50,"[3]; Mus musculus, B16-F10, 72 h",2.31
same,Ratio IC50,K562 [4],<1
same,Ratio IC50,B16-F10 [5],<1
CN[C@@H]1C[C@H]2O[C@@](C)([C@@H]1OC)n1c3ccccc3c3c4c(c5c6ccccc6n2c5c31)C(=O)NC4 [STAUROSPORINE],viability at 0.1 µM,B16-F10 [8],33.9%
same,Activity,B16-F10 [9],0.461%
same,fold change (FC),B16-F10 [10],21
same,Activity,B16-F10 [11],22.2%
same,Activity,B16-F10 [12],43.5%
"Bi-chlorodibenzo[c,f][1,5]thiabismocine",fold change (FC),HL-60 [13],13
same,Activity,HL-60 [14],80%
Bis-(2-acetylbenzoato)triphenylbismuth(V),fold change (FC),B16-F10 [15],1.5
same,Activity,B16-F10 [16],6.81%
same,Ratio IC50,B16-F10 [1],13
same,Activity,B16-F10 [17],15.4%
same,Activity,B16-F10 [18],90.1%
same,fold change (FC),B16-F10 [19],33
same,Ratio IC50,K562 [2],52.4
same,fold change (FC),B16-F10 [20],18
same,fold change (FC),B16-F10 [21],129
same,fold change (FC),B16-F10 [22],8
same,fold change (FC),B16-F10 [23],70
same,Activity,B16-F10 [24],1.57%
same,Activity,B16-F10 [25],66.1%
same,Activity,B16-F10 [26],14.6%
same,Activity,B16-F10 [27],3.89%
same,Ratio IC50,K562 [4],24.6
same,Activity,B16-F10 [28],77.3%
same,fold change (FC),B16-F10 [29],70
same,Activity,B16-F10 [30],10.7%
same,Activity,B16-F10 [31],1.25%
same,fold change (FC),B16-F10 [32],256
same,fold change (FC),B16-F10 [33],34
same,Ratio IC50,B16-F10 [5],6.1
same,Activity,B16-F10 [34],7.1%
same,fold change (FC),B16-F10 [35],18
same,Activity,B16-F10 [36],5.22%
Bis-(4-acetylbenzoato)triphenylbismuth(V),Ratio IC50,B16-F10 [1],12.7
same,Ratio IC50,K562 [2],7.4
same,Ratio IC50,K562 [4],1
same,Ratio IC50,B16-F10 [5],1.8
Bis-(5-acetylsalicylato)triphenylantimony(V) chloroform solvate,Ratio IC50,B16-F10 [1],1.6
same,Ratio IC50,K562 [2],5.6
same,Ratio IC50,K562 [4],7.9
same,Ratio IC50,B16-F10 [5],2.2
DICHLOROTRIPHENYLBISMUTHANE,pIC50,L929; l929,3.81
same,pIC50,[3]; b16-f10,4.72
same,pIC50,[7]; melan-a,3.89
same,pIC50,K562 [6]; k562,4.51
TRIPHENYLBISMUTHINE,fold change (FC),[37],5
[sequence],Ratio IC50,B16-F10 [1],6.7
same,Ratio IC50,K562 [2],4.1
same,Ratio IC50,K562 [4],5
same,Ratio IC50,B16-F10 [5],8
bis-(4-acetylbenzoato)triphenylantimony(V),Ratio IC50,B16-F10 [1],6.6
same,Ratio IC50,K562 [2],7.2
same,Ratio IC50,K562 [4],3.4
same,Ratio IC50,B16-F10 [5],3.1
triphenylantimony(V) dichloride,Ratio IC50,B16-F10 [1],6.7
same,Ratio IC50,K562 [2],2.6
same,Ratio IC50,K562 [4],2.6
same,Ratio IC50,B16-F10 [5],1.9
